One experiment has as its target Acetylcholinesterase (Electrophorus electricus, UniProt O42275). Put plainly: Anticholinesterase Activity Assays. Particulars: pH 8. Here is the method:
(§1) The substrates of the reaction were acetylthiocholine iodide and butyrylthiocholine iodide. 5,5'-dithio-bis(2-nitrobenzoic) acid (DTNB) was used for the measurement of the anticholinesterase activity. The solutions of the samples and galantamine in n-propanol were prepared at concentration of 4000 µg/mL. […] 10 µL of DTNB solution was prepared by adding 2.0 mL of pH 7.0 and 4.0 mL of pH 8.0 phosphate buffers to a mixture of 1.0 mL of 16 mg/mL DTNB and 7.5 mg/mL NaHCO3 in pH 7.0 phosphate buffers. The reaction was initiated by the addition of 10 µL (7.1 mM) acetylthiocholine iodide (or 0.79 mM butyrylthiocholine iodide). Propyl alcohol was used as a solvent to controls. The hydrolysis of these substrates was monitored at 412 nm.

Experiment [1] has as its target Carboxylic ester hydrolase (Equus caballus, UniProt Q9N1N9). Put plainly: Anticholinesterase Activity Assays. Particulars: pH 8. The method, then: as §1

Carboxylic ester hydrolase, sequence (Q9N1N9 whole entry): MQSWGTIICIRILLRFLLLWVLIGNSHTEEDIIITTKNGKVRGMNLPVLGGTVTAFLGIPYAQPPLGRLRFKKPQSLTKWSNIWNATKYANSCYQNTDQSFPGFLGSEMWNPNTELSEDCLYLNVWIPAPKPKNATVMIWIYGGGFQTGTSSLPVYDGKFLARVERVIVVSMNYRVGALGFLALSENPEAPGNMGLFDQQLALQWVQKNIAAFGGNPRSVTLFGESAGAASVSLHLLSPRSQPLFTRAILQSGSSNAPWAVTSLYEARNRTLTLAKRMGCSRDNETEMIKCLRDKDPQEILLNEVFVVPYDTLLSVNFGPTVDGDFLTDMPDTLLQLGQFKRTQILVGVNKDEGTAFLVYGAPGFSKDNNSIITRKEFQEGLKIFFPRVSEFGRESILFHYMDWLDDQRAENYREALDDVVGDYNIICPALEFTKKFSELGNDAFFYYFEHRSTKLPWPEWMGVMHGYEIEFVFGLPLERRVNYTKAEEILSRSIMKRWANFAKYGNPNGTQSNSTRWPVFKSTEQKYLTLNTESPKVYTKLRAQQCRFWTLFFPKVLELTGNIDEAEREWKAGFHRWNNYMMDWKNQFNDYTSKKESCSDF
Acetylcholinesterase, sequence (O42275 whole entry): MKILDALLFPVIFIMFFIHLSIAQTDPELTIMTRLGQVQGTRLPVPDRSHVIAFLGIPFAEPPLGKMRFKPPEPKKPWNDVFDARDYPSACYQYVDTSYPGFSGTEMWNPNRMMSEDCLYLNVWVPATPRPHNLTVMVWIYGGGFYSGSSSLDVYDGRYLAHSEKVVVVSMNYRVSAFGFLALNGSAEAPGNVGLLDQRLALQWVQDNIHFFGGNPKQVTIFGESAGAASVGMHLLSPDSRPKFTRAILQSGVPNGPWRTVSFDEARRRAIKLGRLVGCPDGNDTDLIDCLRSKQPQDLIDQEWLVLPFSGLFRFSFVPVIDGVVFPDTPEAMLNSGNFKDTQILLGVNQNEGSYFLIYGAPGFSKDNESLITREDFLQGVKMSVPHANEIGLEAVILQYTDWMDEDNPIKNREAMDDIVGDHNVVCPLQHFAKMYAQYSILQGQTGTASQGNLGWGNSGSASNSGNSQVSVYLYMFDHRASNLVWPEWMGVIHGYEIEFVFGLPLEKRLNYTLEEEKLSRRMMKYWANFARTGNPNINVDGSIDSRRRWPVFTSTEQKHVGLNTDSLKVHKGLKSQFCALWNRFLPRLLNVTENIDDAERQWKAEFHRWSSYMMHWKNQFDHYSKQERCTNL

Consider `COc1cccc2cc(-c3csc(NC(=O)Nc4ccccc4F)n3)c(=O)oc12` [1-(2-Fluorophenyl)-3-(4-(8-methoxy-2-oxo-2H-chromen-3-yl)thiazol-2-yl)urea (e20)], for which the IC50 (in general, the concentration needed to halve the response being measured) at Acetylcholinesterase came to 66.2 µM; in experiment [1], 79.6 µM.

As to `O=C(Nc1nc(-c2cc3ccccc3oc2=O)cs1)Nc1ccccc1F` [1-(2-Flurophenyl)-3-(4-(2-oxo-2H-chromen-3-yl)thiazol-2-yl)urea (e7)], the IC50 against Acetylcholinesterase amounted to 31.5 µM; in experiment [1] it was 34.5 µM.

On to `COc1ccccc1NC(=O)Nc1nc(-c2cc3ccccc3oc2=O)cs1` [1-(2-Methoxyphenyl)-3-(4-(2-oxo-2H-chromen-3-yl)thiazol-2-yl)urea (e1)], for which the IC50 came out at 38 µM against Acetylcholinesterase and 30.3 µM in experiment [1].

As to `O=C(Nc1cccc(Cl)c1)Nc1nc(-c2cc3ccccc3oc2=O)cs1` [1-(3-Chlorophenyl)-3-(4-(2-oxo-2H-chromen-3-yl)thiazol-2-yl)urea (e10)], the IC50 stood at 111 µM against Acetylcholinesterase and 66.6 µM in experiment [1].

`O=c1oc2ccccc2cc1-c1csc(NC(=S)Nc2cccc(F)c2)n1` [1-(3-Fluorophenyl)-3-(4-(2-oxo-2H-chromen-3-yl)thiazol-2-yl)thiourea (f1)]: the IC50 against Acetylcholinesterase came to 16.4 µM; in experiment [1], 20.8 µM.

Turning to `O=C(Nc1cccc(F)c1)Nc1nc(-c2cc3ccccc3oc2=O)cs1` [1-(3-Fluorophenyl)-3-(4-(2-oxo-2H-chromen-3-yl)thiazol-2-yl)urea (e8)], the figures for the IC50 (on Acetylcholinesterase; in experiment [1]) were 58.1 µM and 62.2 µM, respectively.

For the molecule `COc1cccc2cc(-c3csc(NC(=O)Nc4cccc(F)c4)n3)c(=O)oc12` [1-(3-Fluorophenyl)-3-(4-(8-methoxy-2-oxo-2H-chromen-3-yl)thiazol-2-yl)urea (e21)], the IC50 was 67 µM against Acetylcholinesterase and 110 µM in experiment [1].

Regarding `COc1cccc(NC(=O)Nc2nc(-c3cc4ccccc4oc3=O)cs2)c1` [1-(3-Methoxyphenyl)-3-(4-(2-oxo-2H-chromen-3-yl)thiazol-2-yl)urea (e2)], the figures for the half-inhibitory concentration (IC50) (against Acetylcholinesterase; in experiment [1]) were 52.8 µM and 75 µM, respectively.

Regarding `COc1cccc(NC(=O)Nc2nc(-c3cc4cc([N+](=O)[O-])ccc4oc3=O)cs2)c1` [1-(3-Methoxyphenyl)-3-(4-(6-nitro-2-oxo-2H-chromen-3-yl)thiazol-2-yl)urea (e27)], the figures for the half-maximal inhibitory concentration (IC50) (at Acetylcholinesterase; in experiment [1]) were 38.7 µM and 77.5 µM, respectively.

As to `Cc1ccc(NC(=O)Nc2nc(-c3cc4cc([N+](=O)[O-])ccc4oc3=O)cs2)cc1` [1-(4-(6-Nitro-2-oxo-2H-chromen-3-yl)thiazol-2-yl)-3-(ptolyl)urea (e29)], the IC50 against Acetylcholinesterase was determined as 93.9 µM; in experiment [1], 195 µM.

Regarding `O=C(Nc1ccccc1)Nc1nc(-c2cc3cc([N+](=O)[O-])ccc3oc2=O)cs1` [1-(4-(6-Nitro-2-oxo-2H-chromen-3-yl)thiazol-2-yl)-3-phenylurea (e30)], the values for the IC50 (against Acetylcholinesterase; in experiment [1]) were 103 µM and 84.5 µM, respectively.

As for `COc1cccc2cc(-c3csc(NC(=O)Nc4cccc(Cl)c4)n3)c(=O)oc12` [1-(4-(8-Methoxy-2-oxo-2H-chromen-3-yl)thiazol-2-yl)-3-(3-chlorophenyl)urea (e23)], the half-inhibitory concentration (IC50) against Acetylcholinesterase was 105 µM; in experiment [1] it was 62.9 µM.

With `COc1cccc2cc(-c3csc(NC(=S)Nc4cccc(F)c4)n3)c(=O)oc12` [1-(4-(8-Methoxy-2-oxo-2H-chromen-3-yl)thiazol-2-yl)-3-(3-fluorophenyl)thiourea (f6)], the IC50 at Acetylcholinesterase worked out at 18.4 µM; in experiment [1], 18 µM.

Consider `COc1cccc(NC(=O)Nc2nc(-c3cc4cccc(OC)c4oc3=O)cs2)c1` [1-(4-(8-Methoxy-2-oxo-2H-chromen-3-yl)thiazol-2-yl)-3-(3-methoxyphenyl)urea (e14)], for which the IC50 at Acetylcholinesterase was 83.8 µM; in experiment [1] it was 56.5 µM.

Molecule `COc1cccc2cc(-c3csc(NC(=O)Nc4ccc(Br)cc4)n3)c(=O)oc12` [1-(4-Bromophenyl)-3-(4-(8-methoxy-2-oxo-2H-chromen-3-yl)thiazol-2-yl)urea (e25)] yielded an IC50 against Acetylcholinesterase of 69.1 µM. In other words, the double-digit micromolar range.

The values above are taken from BindingDB's records for doi:10.1016/j.bioorg.2015.02.002 (Bezmialem Vakif University, 2015).
